In US4746675A, “External pharmaceutical composition” (Teijin Limited, priority 1983, dated 1988):
Like-named read-outs stand apart in the source and are kept apart here.

Assays:
[1] = diffusion of drug through egg shell membrane in diffusion cell; assay type: in vitro ADME
Procedure: A diffusion cell was partitioned by an egg shell membrane. […] While maintaining a temperature of 37° C., the two liquid phases were stirred, and after a lapse of a predetermined period of time, the amount of the drug which diffused into the acceptor side from the donor side was measured.
The diffusion cell used was a glass cell for use in an ordinary diffusion experiment. The egg shell was obtained by removing the contents of an egg from the shell, immersing the shell in 0.7% acetic acid for 30 minutes, subjecting it to ultrasonication for 15 minutes, and carefully peeling the membrane from the shell.
A control test was carried out in the same way as above except that only the drug was added to the donor side.
The amount of the drug which diffused to the acceptor side was measured 30 minutes later, and compared with the control.
The relative amount of the drug diffused from the drug-penetration enhancer system was calculated by taking the amount of the drug diffused from the control donor side as 100. […] Bull., Vol. 20, p.

carrageenan edema = carrageenan edema inhibiting effect of betamethasone valerate ointments; assay type: in vivo, rat; details: Table 5, betamethasone valerate ointment with penetration enhancer
Procedure: An ointment was prepared from 0.15 part by weight of betamethasone valerate, 9.85 parts by weight of compound (168) and 90 parts by weight of the hydrophilic ointment.
In accordance with the method of R. Passarella et al. [Argneim. Forsch 30, (I), Nr. 4, 647-651 (1980)], the carrageenan edema inhibiting effect of the above ointment was examined. Specifically, 0.1 ml of a 1% carrageenan suspension in 0.9% NaCl solution was injected into the tip of the right leg of a rat (body weight 150-175 g). The foot volume was measured immediately after administration of carrageenan and 3, 5, and 6 hours after the administration by means of a mercury displacement device. 0.5, 1 and 2 hours after the administration of carrageenan, 100 mg of the ointment was well […] into each of the sites which underwent inflammation.
Various ointments were prepared from 0.15 part by weight of betamethasone valerate, […] of the various penetration enhancers shown in Table 5, and 85 parts by weight of the hydrophilic ointment, and tested in the same way as in Example 23.

[2] = tested on: eye (cornea, iris, conjunctiva); assay: primary eye irritation (Draize) in rabbits; assay type: in vivo, white native male rabbits; details: 2.4% soln, average of three rabbits
Procedure: enhancers of this invention shown in Table 17 was applied dropwise to one eye of white native male rabbits (body weight 2.0 to 3.0 kg; 3 per group) which, it had been ascertained, were free from any trouble at the cornea, iris and conjunctiva. Nothing was applied to the other eye. Thus, irritation of the absorption aid to the mucous membrane of the eyes were examined, and scores were calculated in accordance with the Draize's eye irritation evaluating method [Association of Foods, "Drugs and Cosmetics" (1957)].
As a control, sodium laurylsulfate, a kind of surface-active agent, was evaluated in the same way, and the results are also shown in Table 17.

[3] = 30 minutes, drug 0.05% with compound (168) 1.0% on donor side, drug alone = 100, 37° C.

Which “Relative amount of the drug diffused” value [1, 3] does the source give for `O=c1[nH]cc(F)c(=O)[nH]1` [5-Fluorouracil] here?
Its value is 208.

Which “Relative amount of the drug diffused” value [1, 3] does the source give for `O=C(O)c1ccccc1O` [Salicylic acid] here?
The value was 203.

For `CCN(CC)CCOC(=O)c1ccc(N)cc1` [Procaine], which “Relative amount of the drug diffused” value [1, 3] is on record?
Its value is 149.

Which results are given for `CCCCCCCCC1(CCCCCCCC)OCC(COC(=O)C2CCC(=O)N2)O1` (centres unmarked) [Compound (214), 2,3-dioxo-(dioctyl)methylene-1-pyroglutamyloxypropane]?
Percentage inhibition vs. control (carrageenan edema; 3 hrs): 18.2%; Percentage inhibition vs. control (carrageenan edema; 5 hrs): 35.3%; Percentage inhibition vs. control (carrageenan edema; 6 hrs): 35.5%; Primary irritation score, Conjunctiva ([2]; 1 hour): 2.0; Primary irritation score, Cornea ([2]; 1 hour): 0; Primary irritation score, Iris ([2]; 1 hour): 0; Primary irritation score, Total ([2]; 1 hour): 2.0; Primary irritation score, Conjunctiva ([2]; 3 hours): 2.0; Primary irritation score, Cornea ([2]; 3 hours): 0; Primary irritation score, Iris ([2]; 3 hours): 0; Primary irritation score, Total ([2]; 3 hours): 2.0; Primary irritation score, Conjunctiva ([2]; 6 hours): 2.0; Primary irritation score, Cornea ([2]; 6 hours): 0; Primary irritation score, Iris ([2]; 6 hours): 0; Primary irritation score, Total ([2]; 6 hours): 2.0; Primary irritation score, Conjunctiva ([2]; 24 hours): 0; Primary irritation score, Cornea ([2]; 24 hours): 0; Primary irritation score, Iris ([2]; 24 hours): 0; Primary irritation score, Total ([2]; 24 hours): 0; Primary irritation score, Conjunctiva ([2]; 48 hours): 0; Primary irritation score, Cornea ([2]; 48 hours): 0; Primary irritation score, Iris ([2]; 48 hours): 0; Primary irritation score, Total ([2]; 48 hours): 0; Primary irritation score, Conjunctiva ([2]; 72 hours): 0; Primary irritation score, Cornea ([2]; 72 hours): 0; Primary irritation score, Iris ([2]; 72 hours): 0; Primary irritation score, Total ([2]; 72 hours): 0; Primary irritation score, Conjunctiva ([2]; 96 hours): 0; Primary irritation score, Cornea ([2]; 96 hours): 0; Primary irritation score, Iris ([2]; 96 hours): 0; Primary irritation score, Total ([2]; 96 hours): 0; Primary irritation score, Conjunctiva ([2]; 168 hours): 0; Primary irritation score, Cornea ([2]; 168 hours): 0; Primary irritation score, Iris ([2]; 168 hours): 0; Primary irritation score, Total ([2]; 168 hours): 0

For `O=C(O)c1cc(=O)c2c(OCC(O)COc3cccc4oc(C(=O)O)cc(=O)c34)cccc2o1` [Sodium cromoglicate], which “Relative amount of the drug diffused” value [1] is on record?
The value was 159.

Which “Relative amount of the drug diffused” value [1, 3] does the source give for `CC1(C)O[C@@H]2C[C@H]3[C@@H]4CCC5=CC(=O)C=C[C@]5(C)[C@@]4(F)[C@@H](O)C[C@]3(C)[C@]2(C(=O)CO)O1` [Triamcinolone acetonide] here?
Its value is 214.

For `CN1C(C(=O)Nc2ccccn2)=C(O)c2ccccc2S1(=O)=O` [Piroxicam], which “Relative amount of the drug diffused” value [1] is on record?
The value was 177.
